In assay [1] the target is T1, High affinity choline transporter 1 (Homo sapiens, UniProt Q9GZV3).
T1 sequence (Q9GZV3 whole entry): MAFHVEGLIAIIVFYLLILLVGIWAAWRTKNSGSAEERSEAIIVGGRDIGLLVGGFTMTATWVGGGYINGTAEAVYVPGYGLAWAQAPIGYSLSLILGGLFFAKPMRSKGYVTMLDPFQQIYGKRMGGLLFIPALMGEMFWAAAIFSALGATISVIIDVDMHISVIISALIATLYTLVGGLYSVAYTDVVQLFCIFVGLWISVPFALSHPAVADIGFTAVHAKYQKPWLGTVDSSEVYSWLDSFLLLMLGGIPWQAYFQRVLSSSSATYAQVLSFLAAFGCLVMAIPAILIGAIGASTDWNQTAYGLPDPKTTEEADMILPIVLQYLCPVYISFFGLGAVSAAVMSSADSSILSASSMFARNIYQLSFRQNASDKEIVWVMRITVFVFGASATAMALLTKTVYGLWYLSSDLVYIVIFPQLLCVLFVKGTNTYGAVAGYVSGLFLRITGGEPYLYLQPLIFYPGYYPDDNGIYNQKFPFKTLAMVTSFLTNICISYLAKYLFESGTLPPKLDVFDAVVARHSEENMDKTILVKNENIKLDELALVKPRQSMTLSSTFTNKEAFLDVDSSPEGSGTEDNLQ
Description: human choline transporter blockers, potency – cell-based, 10-point CRC, membrane potential dye, dose response (AID 588401).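 Also: membrane potential dye fluorescence of choline-evoked depolarization via CHT.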 It counts as functional.

In assay [2] the target is T1, High affinity choline transporter 1. Description: human choline transporter blockers, potency – cell-based, 5-point CRC, membrane potential dye, dose response (AID 504840). It counts as functional.
The target in assay [3] is Potassium voltage-gated channel subfamily KQT member 2 (Rattus norvegicus, UniProt O88943). The assay is described as follows: blockers of KCNQ2 channel current – cell-based, automated electrophysiology, set II, rat KCNQ2, dose response (AID 588637). It counts as functional.
Potassium voltage-gated channel subfamily KQT member 2, sequence (O88943 whole entry): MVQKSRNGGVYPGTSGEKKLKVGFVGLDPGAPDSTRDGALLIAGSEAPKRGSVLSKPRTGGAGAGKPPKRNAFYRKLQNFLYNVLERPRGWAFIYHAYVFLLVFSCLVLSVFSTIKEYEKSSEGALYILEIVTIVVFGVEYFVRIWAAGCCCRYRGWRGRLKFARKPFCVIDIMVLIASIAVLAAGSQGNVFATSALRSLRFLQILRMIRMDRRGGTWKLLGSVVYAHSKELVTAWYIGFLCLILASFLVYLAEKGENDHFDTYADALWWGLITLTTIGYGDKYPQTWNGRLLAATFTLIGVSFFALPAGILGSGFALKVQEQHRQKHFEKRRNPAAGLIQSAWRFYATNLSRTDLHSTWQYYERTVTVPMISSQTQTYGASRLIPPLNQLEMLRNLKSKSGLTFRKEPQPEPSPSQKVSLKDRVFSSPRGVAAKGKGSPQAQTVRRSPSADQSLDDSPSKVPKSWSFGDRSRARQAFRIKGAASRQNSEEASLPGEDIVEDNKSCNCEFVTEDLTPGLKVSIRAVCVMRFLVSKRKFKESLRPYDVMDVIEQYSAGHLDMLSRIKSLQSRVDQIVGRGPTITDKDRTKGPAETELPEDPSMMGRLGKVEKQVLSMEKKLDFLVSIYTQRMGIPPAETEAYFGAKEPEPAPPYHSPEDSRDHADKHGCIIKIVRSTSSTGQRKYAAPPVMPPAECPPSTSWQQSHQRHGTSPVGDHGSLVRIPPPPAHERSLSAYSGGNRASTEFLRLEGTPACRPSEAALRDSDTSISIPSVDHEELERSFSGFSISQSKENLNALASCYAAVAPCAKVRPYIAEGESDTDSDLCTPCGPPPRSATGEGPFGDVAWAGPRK
Assay [4] addresses 26S proteasome non-ATPase regulatory subunit 14 (Homo sapiens, UniProt O00487). Description: inhibition of proteasome subunit RPN11 – biochemical, fluorescence polarization, uHTS hits, confirmation (AID 602368). It counts as functional. For orientation: In fluorescence polarisation assays a small probe gives low polarisation when free and higher when bound to something large.

The next assay has as its target Prothrombin (Bos taurus, UniProt P00735). The assay is described as follows: thrombin protease inhibitors – biochemical, fluorescence polarization, uHTS hits, dose response (AID 602369). It counts as functional.
For assay [5], the target named is 72 kDa type IV collagenase (Homo sapiens, UniProt P08253). The assay is described as follows: Dose Response validation of uHTS RPN11 inhibitor hits using a MMP-2 Fluorescence assay. In kind it is functional.
72 kDa type IV collagenase, sequence (P08253 whole entry): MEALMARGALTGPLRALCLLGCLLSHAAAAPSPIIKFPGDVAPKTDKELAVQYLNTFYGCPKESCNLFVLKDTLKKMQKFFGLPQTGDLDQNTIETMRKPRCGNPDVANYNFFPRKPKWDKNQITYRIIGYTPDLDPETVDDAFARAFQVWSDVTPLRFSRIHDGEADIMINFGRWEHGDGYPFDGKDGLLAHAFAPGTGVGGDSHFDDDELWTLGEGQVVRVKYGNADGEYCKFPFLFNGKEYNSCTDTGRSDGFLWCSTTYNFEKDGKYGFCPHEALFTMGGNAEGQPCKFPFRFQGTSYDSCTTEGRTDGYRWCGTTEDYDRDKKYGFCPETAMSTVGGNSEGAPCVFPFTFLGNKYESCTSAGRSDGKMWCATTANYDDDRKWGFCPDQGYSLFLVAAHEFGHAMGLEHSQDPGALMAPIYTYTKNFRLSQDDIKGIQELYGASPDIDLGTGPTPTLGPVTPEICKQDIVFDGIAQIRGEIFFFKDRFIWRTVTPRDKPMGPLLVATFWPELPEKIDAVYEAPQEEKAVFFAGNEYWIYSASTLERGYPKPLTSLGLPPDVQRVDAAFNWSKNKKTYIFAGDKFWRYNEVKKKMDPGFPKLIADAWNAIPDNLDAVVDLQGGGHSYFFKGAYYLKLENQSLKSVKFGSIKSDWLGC
The target in assay [6] is Benomyl/methotrexate resistance protein (Candida albicans, UniProt P28873). Description: Candida albicans Mdr1 pump inhibition curves – singleplex, Cherry Pick1 hits, dose response (AID 588608). It counts as functional.
Benomyl/methotrexate resistance protein, sequence (P28873 whole entry): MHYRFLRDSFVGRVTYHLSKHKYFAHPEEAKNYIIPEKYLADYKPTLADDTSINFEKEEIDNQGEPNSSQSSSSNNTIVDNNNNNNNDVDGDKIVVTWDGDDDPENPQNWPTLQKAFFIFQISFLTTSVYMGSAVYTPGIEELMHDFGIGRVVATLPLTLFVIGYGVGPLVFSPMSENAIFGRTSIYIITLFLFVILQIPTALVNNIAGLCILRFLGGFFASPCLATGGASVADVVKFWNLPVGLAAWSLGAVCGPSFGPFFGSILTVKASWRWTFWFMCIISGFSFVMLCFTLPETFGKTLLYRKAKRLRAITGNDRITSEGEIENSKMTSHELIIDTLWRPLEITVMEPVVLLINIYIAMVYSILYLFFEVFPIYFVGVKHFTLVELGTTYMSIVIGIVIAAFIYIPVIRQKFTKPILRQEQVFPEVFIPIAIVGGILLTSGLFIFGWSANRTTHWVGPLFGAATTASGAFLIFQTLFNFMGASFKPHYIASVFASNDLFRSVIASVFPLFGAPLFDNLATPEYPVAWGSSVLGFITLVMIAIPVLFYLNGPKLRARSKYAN
Assay [7] has as its target Protein disulfide-isomerase (Homo sapiens, UniProt P07237). Description: inhibition of PDI-driven insulin aggregation – biochemical, turbidity, absorbance, cherry-picked samples, dose response (AID 602350). It counts as functional.
Assay [8] concerns the target T2, Sentrin-specific protease 7 (Homo sapiens, UniProt Q9BQF6).
T2 sequence (Q9BQF6 whole entry): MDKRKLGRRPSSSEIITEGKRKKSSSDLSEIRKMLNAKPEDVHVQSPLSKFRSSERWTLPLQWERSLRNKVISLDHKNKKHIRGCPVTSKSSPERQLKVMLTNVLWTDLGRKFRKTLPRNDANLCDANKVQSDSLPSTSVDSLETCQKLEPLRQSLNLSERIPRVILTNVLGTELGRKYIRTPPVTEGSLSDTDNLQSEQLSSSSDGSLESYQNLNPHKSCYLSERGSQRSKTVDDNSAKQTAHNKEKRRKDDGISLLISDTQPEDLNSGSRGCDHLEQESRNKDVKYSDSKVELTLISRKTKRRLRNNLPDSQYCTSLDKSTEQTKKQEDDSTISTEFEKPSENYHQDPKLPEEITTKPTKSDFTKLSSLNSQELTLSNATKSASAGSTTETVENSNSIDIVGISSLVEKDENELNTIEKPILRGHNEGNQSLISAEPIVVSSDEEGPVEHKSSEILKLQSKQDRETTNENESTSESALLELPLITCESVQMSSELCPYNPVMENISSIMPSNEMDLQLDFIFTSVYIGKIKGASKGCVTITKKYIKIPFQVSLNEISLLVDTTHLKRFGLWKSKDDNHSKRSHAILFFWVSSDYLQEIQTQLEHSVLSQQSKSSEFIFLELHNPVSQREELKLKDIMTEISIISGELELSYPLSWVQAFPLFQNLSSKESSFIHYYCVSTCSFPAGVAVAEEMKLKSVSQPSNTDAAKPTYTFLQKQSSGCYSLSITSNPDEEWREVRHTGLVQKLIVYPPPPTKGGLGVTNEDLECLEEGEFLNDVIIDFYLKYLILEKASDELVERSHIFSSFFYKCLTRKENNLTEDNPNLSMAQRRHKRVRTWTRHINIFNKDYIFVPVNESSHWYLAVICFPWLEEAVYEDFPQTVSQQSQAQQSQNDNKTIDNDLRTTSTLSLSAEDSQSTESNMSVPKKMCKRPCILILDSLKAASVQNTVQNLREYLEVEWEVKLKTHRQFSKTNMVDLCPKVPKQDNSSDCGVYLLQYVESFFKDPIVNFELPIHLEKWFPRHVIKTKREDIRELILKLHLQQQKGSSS
Description: inhibition of human SENP7 cleavage activity – biochemical, luminescence, SAR follow-up (AID 504497). It counts as functional.

The next assay addresses T3, Caspase-3 (Homo sapiens, UniProt P42574).
T3 sequence (P42574 whole entry): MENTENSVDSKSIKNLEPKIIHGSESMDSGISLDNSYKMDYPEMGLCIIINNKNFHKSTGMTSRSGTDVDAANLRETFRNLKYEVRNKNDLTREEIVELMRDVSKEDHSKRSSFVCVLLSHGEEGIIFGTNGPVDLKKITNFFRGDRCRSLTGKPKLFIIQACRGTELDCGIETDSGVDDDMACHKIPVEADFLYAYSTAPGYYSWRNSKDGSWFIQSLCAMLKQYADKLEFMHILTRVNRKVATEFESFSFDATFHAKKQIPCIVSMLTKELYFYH
The assay is described as follows: SAR Analysis of small molecule inhibitors of Sentrin-specific proteases (SENPs) using a Caspase-3 Selectivity assay. [Related pubchem assays (depositor defined):AID2540, AID2599, AID434973, AID489001]. It counts as functional.

In assay [9] the target is T4, Sentrin-specific protease 8 (Homo sapiens, UniProt Q96LD8).
T4 sequence (Q96LD8 whole entry): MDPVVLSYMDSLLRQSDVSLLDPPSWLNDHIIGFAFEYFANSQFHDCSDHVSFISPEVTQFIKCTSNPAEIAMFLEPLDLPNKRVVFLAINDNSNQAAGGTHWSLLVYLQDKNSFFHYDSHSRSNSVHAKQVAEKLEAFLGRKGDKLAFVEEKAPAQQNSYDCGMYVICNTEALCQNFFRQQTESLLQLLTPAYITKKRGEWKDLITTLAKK
The assay is described as follows: inhibition of human SENP8 cleavage activity – biochemical, luminescence, SAR follow-up (AID 504501). In kind it is functional.

Assay [10] deals with T5, Sentrin-specific protease 6 (Homo sapiens, UniProt Q9GZR1).
T5 sequence (Q9GZR1 whole entry): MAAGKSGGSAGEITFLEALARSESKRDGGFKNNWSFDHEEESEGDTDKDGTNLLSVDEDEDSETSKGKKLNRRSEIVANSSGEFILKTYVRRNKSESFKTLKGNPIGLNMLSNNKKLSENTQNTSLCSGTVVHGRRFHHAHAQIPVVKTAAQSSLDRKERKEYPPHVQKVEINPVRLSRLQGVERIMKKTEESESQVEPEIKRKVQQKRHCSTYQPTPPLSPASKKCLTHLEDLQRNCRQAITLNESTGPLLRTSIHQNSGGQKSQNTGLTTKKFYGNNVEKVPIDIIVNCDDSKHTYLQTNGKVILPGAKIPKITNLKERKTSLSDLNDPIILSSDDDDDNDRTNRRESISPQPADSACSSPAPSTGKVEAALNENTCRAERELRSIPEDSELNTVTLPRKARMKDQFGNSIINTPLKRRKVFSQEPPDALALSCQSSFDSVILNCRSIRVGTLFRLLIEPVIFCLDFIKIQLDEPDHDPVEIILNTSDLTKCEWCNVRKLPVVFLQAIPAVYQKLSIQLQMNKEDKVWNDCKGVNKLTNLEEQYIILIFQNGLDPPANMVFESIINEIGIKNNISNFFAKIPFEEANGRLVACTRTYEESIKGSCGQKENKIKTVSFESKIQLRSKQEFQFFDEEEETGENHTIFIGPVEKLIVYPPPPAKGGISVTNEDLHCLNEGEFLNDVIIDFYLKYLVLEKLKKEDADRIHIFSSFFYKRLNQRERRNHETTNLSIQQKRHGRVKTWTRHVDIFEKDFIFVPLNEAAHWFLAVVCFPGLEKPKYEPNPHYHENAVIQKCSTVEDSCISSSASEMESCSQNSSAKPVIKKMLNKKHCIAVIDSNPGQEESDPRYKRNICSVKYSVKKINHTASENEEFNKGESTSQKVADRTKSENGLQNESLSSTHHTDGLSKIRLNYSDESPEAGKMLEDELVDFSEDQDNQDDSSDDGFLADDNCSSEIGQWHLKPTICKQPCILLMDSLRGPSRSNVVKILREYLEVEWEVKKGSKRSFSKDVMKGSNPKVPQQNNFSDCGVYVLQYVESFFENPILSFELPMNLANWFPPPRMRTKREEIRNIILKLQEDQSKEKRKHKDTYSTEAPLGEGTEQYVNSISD
The assay is described as follows: SAR Analysis of small molecule inhibitors of Sentrin-specific protease 6 (SENP6) using a Luminescent assay. [Related pubchem assays (depositor defined):AID2582, AID2599]. It counts as functional.

Assay [11] has as its target Melanin-concentrating hormone receptor 1 (Homo sapiens, UniProt Q99705). Description: Late-stage fluorescence-based counterscreen for antagonists of the G-protein coupled receptor 7 (GPR7): cell-based dose response assay to identify antagonists of the melanin-concentrating hormone receptor 1 (MCHR1) Set 5. In kind it is functional. For orientation: A counterscreen serves to expose hits that act by an unwanted route or on another target.

Assay [12] addresses Aryl hydrocarbon receptor (Homo sapiens, UniProt P35869). The settings on record: Potency.
Another assay addresses Cytochrome P450 3A4 (Homo sapiens, UniProt P08684). As to conditions: Potency.
In assay [13] the target is Tyrosine-protein phosphatase non-receptor type 5 (Homo sapiens, UniProt P54829). The assay is described as follows: PTPN5 enzyme inhibition – biochemical, fluorescence intensity, uHTS hits, confirmation (AID 602372). It counts as functional. The settings on record: read-out: IC50_Mean.
Tyrosine-protein phosphatase non-receptor type 5, sequence (P54829 whole entry): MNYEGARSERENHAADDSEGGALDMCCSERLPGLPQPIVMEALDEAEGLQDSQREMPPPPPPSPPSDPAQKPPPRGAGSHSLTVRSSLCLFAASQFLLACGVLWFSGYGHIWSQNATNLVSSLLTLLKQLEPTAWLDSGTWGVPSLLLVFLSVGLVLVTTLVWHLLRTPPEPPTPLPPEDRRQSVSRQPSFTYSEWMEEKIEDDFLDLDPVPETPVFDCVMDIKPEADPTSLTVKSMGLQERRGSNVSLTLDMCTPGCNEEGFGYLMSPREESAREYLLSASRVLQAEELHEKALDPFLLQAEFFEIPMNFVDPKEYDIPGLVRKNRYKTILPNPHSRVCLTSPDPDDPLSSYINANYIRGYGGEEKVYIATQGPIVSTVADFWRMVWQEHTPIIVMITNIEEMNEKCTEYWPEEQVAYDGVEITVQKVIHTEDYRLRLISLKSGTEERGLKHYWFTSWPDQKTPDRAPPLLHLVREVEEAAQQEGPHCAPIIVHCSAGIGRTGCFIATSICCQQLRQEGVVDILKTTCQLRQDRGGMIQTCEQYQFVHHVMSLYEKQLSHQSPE
For assay [14], the target named is Tyrosine-protein phosphatase non-receptor type 11 (Homo sapiens, UniProt Q06124). Description: PTPN11 enzyme inhibitors – biochemical, selectivity assay for STEP inhibitor project, dose response (AID 602367). In kind it is functional. The settings on record: read-out: IC50_Mean.
Assay [15] addresses Dual specificity protein phosphatase 3 (Homo sapiens, UniProt P51452). The assay is described as follows: VHR phosphatase inhibition, dose response, selectivity assay for STEP inhibitor project, biochemical (AID 602374). As to conditions: read-out: IC50_Mean. It counts as functional.
The next assay deals with INS1. Description: INS-1E survival protection against cytokine death – cell-based, luminescence, retest, dose response (AID 449756).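 Also: cell death triggered by IL-1 beta plus TNF-alpha plus IFN-gamma mixture; protective hits raise ATP signal compared with cytokine alone wells.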 It counts as functional. The settings on record: Rattus norvegicus.

Calls of active or inactive are those of the source. A value given as a limit tells only on which side of the number the result lay.

Protein disulfide-isomerase, sequence (P07237 whole entry): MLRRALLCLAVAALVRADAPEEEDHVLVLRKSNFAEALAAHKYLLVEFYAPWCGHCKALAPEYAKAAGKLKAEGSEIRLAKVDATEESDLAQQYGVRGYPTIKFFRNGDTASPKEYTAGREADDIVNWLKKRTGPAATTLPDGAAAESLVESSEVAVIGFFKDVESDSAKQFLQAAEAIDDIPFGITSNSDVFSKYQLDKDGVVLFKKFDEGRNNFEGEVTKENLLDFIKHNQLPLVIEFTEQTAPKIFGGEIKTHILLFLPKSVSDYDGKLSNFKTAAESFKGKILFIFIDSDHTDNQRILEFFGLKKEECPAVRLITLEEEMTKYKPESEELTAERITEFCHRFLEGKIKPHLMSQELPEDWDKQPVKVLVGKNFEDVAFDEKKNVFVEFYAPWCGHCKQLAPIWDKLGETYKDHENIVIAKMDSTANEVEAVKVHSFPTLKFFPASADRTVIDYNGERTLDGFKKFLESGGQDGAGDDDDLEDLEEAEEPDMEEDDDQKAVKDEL
26S proteasome non-ATPase regulatory subunit 14, sequence (O00487 whole entry): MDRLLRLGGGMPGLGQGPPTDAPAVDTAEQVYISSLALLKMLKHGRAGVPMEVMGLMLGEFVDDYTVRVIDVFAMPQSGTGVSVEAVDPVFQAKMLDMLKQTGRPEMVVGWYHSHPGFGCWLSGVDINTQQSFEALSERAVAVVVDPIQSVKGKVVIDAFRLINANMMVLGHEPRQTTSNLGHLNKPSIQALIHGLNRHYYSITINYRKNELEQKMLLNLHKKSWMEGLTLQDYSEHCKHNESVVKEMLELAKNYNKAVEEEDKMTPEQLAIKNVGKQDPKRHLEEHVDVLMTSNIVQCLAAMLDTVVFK
Dual specificity protein phosphatase 3, sequence (P51452 whole entry): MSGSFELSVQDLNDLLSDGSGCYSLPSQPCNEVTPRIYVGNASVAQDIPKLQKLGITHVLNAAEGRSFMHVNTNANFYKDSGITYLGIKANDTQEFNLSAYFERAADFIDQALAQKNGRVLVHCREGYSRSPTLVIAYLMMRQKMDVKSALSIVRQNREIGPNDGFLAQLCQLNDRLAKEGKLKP
Melanin-concentrating hormone receptor 1, sequence (Q99705 whole entry): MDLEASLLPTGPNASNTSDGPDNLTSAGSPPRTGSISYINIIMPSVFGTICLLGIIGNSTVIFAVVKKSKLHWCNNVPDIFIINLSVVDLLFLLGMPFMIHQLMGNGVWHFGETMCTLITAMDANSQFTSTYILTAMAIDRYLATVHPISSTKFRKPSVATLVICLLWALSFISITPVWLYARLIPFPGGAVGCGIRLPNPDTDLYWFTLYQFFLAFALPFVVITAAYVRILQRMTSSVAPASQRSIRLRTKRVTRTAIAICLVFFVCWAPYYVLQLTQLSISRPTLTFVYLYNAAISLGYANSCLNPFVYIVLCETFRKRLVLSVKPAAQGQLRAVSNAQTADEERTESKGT
Cytochrome P450 3A4, sequence (P08684 whole entry): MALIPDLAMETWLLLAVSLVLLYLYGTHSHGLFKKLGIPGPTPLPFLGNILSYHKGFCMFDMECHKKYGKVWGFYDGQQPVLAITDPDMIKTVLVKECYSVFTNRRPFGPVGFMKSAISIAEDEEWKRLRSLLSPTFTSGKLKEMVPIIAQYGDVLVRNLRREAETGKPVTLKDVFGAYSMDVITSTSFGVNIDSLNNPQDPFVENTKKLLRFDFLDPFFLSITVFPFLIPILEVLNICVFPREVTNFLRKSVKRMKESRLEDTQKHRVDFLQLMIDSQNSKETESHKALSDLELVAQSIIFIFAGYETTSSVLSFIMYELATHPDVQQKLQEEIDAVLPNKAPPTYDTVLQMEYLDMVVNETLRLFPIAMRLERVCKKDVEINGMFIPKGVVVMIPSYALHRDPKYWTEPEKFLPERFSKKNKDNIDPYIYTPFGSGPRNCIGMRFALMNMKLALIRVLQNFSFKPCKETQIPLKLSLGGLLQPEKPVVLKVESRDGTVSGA

With `OC(CNC1Cc2ccccc2C1)c1ccccc1` (centres undefined), the IC50 was 0.178 µM (active) in assay [1] and 0.479 µM (active) in assay [2].

For the molecule `O=C(COc1ccc(F)cc1Cl)Nc1ccccc1C(=O)N1CCCCC1`, the IC50 in assay [3] was 0.64 µM (active).

As for `CCSC1=N/C(=C\c2ccc3c(c2)OCO3)C(=O)S1`, the IC50 in [4] was 25 µM (active); on Prothrombin, 64.3 µM (active); in [5], > 100 µM (inactive).

What is called EC50 is the concentration needed to bring the measured effect to its halfway point. On to `NC(=O)c1nc(-c2ccco2)nc2c1[nH]c(=O)n2-c1ccc(Cl)c(Cl)c1`, for which the EC50 in [6] was 14 µM (active).

As usually defined, the AC50 is the concentration giving half of the maximal activity seen. On to `C[C@H]1CN([C@@H](C)CO)C(=O)c2cc(NC(=O)Cc3cn(C)c4ccccc34)ccc2O[C@@H]1CN(C)S(=O)(=O)c1ccc(F)cc1`, for which the AC50 in [7] is 19.5 µM (active).

Regarding `COc1ccc(C(=O)NC(C)CCn2cccn2)cc1OC1CCN(C(C)C)CC1` (centres undefined), the IC50 in assay [1] was 4.22 µM (active); in assay [2], 6.86 µM (active).

Regarding `Cc1nn(-c2ccccc2)c2c1C(c1ccc(OC(F)F)cc1)C(C#N)=C(N)O2` (centres undefined), the IC50 (in [8]; on Caspase-3; in [9]; in assay [10]) was > 99 µM (inactive) each time.

As for `CCSc1nnc([C@H](Cc2c[nH]c3ccccc23)NC(=O)OC(C)(C)C)o1`, the AC50 in assay [7] was 19.5 µM (active).

For `CSc1ccc(Oc2c(Cl)cnn(Cc3cccc4ccccc34)c2=O)cc1`, the IC50 in assay [11] is 1.22 µM (active).

As to `CC(C)(C)C(=O)C(Oc1ccc(Cl)cc1)n1cncn1` (centres undefined) [TRIADIMEFON], the values for the concentration at half-maximal activity (AC50) (in assay [12]; on Cytochrome P450 3A4) were 70.8 µM (inconclusive) and 0.794 µM (inconclusive), respectively.

With `CCOc1ccc2nc(N(CCCn3ccnc3)C(=O)c3ccc(Cl)s3)sc2c1`, the IC50 (in assay [8]; on Caspase-3; in assay [9]; in assay [10]) was > 99 µM (inactive) each time.

Regarding `CCc1ccc(NC(=O)Cc2cn(C)c3ccccc23)cc1`, the figures for the IC50 in assay [13], in assay [14] and in assay [15] were 57 µM (inactive), > 80 µM (inactive) and > 80 µM (inactive), respectively.

`S=C(c1cn(CCOc2cccc3ccccc23)c2ccccc12)N1CCCC1`: the AC50 in the assay with INS1 is 4.3 µM (active). The IC50 in assay [4] is 32.9 µM (active); at Prothrombin, 41.8 µM (active); in assay [5], > 100 µM (inactive).

Values taken from ChEMBL document CHEMBL1201862, “PubChem BioAssay data set” (2004).
